Results taken from PMC10344949, “Arachidonic acid reverses cholesterol and zinc inhibition of human voltage-gated proton channels” (The Journal of Biological Chemistry, 2023).

Biological target: T1, hHv1 (human voltage-gated proton channel) (Homo sapiens, UniProt Q96D96)
T1 construct: gene HVCN1; no truncation stated
T1 sequence (Q96D96 1-273): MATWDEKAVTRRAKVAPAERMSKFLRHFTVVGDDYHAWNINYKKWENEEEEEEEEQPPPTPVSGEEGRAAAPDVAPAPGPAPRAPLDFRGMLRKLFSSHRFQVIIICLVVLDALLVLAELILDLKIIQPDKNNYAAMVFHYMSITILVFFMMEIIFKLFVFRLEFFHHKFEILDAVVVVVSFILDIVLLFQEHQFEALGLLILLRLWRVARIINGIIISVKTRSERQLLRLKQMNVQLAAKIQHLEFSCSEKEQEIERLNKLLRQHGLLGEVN
Assay: liposome proton flux assay (ACMA quenching), Hill fit
Assay type: biochemical
Details: read-out: half activation concentration (Kd)

EC50: 7.2 µM
Structure (SMILES): CCCCC/C=C\C/C=C\C/C=C\C/C=C\CCCC(=O)O [arachidonic acid]
